In patent US20110224297A1, “Methods of administering prostratin and structural analogs thereof” (priority 2008, published 2011):
Read-outs that look alike come from different tables or passages of the source.

Tests used:
rats [1] = test: Tolerability of intravenous infusion and oral doses in rats; format: in vivo
Experimental: In order to find out the best route of administration and the correct concentration of prostratin, the drug was administered as an intravenous infusion over three hours as well as a single and twice oral administration to 3 groups of rats. The goal of this experiment was to find out if greater amounts of prostratin can be administered over a longer period of time. This would enable obtaining median higher concentrations in the blood for a longer period of time that would be close to effective concentration found in in vitro studies.
(§1) The oral doses were estimated based on a maximum tolerated i.v. dose of 0.4 mg/kg from the DART work in rats, but an oral bio-availability of only 29%. Thus, the maximum tolerated i.v. dose was multiplied by three (i.e., 0.4 mg/kg times 3 equals 1.2 mg/kg as the equivalent oral dose). The purpose of the two lower oral doses (both 0.8 mg/kg, therefore a total of 1.6 mg/kg) and the infusion (0.8 mg/kg over three hours) was to see if the maximum tolerated dose could be exceeded by dividing up the oral into two times 75% the max tolerated dose or as an infusion over 3 hours.

[2] = Stability of prostratin in mouse plasma; format: in vitro ADME; conditions: 24 hr incubation at 37° C.
Experimental: Prostratin is stable in plasma and buffer as well as in the stability formulation (see below) developed for in vivo studies in mice. Stability tests for prostratin in mouse and monkey plasma were done using two concentration (1 and 10 mg/ml) and two temperatures (Room Temperature (RT) and 37° C.). The only loss of drug occurred in mouse plasma after 24 hr incubation at 37° C. This represented only 14% decrease in parent drug peak area over this time frame. Prostratin is stable in PBS (phosphate buffer saline) at pH 2 and pH 7.

rats [3] = test: DART work in rats (IV injection); format: in vivo; conditions: for maximum tolerated i.v. dose: iv bolus
Experimental: Extrapolation was performed from the DART work that was all done in rats as an IV injection (not infusion). Infusions and injections are by definition 100% bio-available meaning it all gets in.
as §1

[4] = In vitro metabolism in mouse liver microsomes; format: in vitro ADME
Description: In vitro metabolism of prostratin was investigated using mouse, rat, monkey, and human liver microsomes (Gentest). […] Attempts to identify the metabolite by LC/MS/MS were unsuccessful due to the low amounts present in the reaction mixtures (FIG. 1).

[5] = In vivo rat bone marrow micronucleus assay; parameters: species or system CD® (SD) IGS BR rat; conditions: CD (SD) IGS BR, rat, in vivo, once by oral gavage, dose range-finding study, read-out: maximum tolerated dose
Experimental: (§2) The objective of this study was to evaluate the test article, prostratin, for in vivo clastogenic activity and/or disruption of the mitotic apparatus by detecting micronuclei in polychromatic erythrocytes (PCE) in CD® (SD) IGS BR rat bone marrow.
(§3) In the dose range-finding study, the test article was dissolved in ethanol followed by dilution with 0.9% Sodium Chloride for Injection to achieve a final ethanol:saline vehicle (0.8:99.2 v/v) at the appropriate dosing concentrations. The formulations were administered once by oral gavage to three males and three females per dose level. The animals were dosed at 0.4, 0.5, 2, or 5 mg/kg and observed for up to 2 days after dosing for toxic signs and/or mortality.
(§4) Based on the results of the dose range-finding study, the maximum tolerated dose was estimated to be 2.4 mg/kg in the male animals and 2 mg/kg in the female animals. In the micronucleus assay, the test article was dissolved in ethanol followed by dilution with 0.9% Sodium Chloride for Injection to achieve a final ethanol:saline vehicle (0.8:99.2 v/v) at the appropriate dosing concentrations.
(§5) Bone marrow was extracted and at least 2000 PCEs per animal were analyzed for the frequency of micronuclei. Cytotoxicity was assessed by scoring the number of PCEs and normochromatic erythrocytes (NCEs) in at least the first 500 total erythrocytes for each animal.

[6] = system: polychromatic erythrocytes (PCE) in CD® (SD) IGS BR rat bone marrow; test: In vivo rat bone marrow micronucleus assay
Experimental: as §2, §3, §4, §5

[7] = system: latently infected U1 cells; test: HIV expression (reverse transcriptase activity in supernatant) in latently infected U1 cells; format: cell-based
Experimental: The effect of prostratin on virus replication was assessed in latently infected ACH-2 and U1 cells by measuring the accumulation of reverse transcriptase activity in the supernatant of stimulated cells (Gustafson et al., 1992, J Med Chem 35(11): 1978-86).
Briefly, 4×10^4 cells in 100 μl fresh medium were mixed with another 100 μl of medium with or without prostratin or PMA in a 96-well microtiter plate. Plates were incubated for 24-72 h at 37° C. Following incubation, supernatants were harvested, centrifuged (to remove any residual cells) and tested for reverse transcriptase activity as previously described (Gustafson et al., 1992, J Med Chem 35(11): 1978-86).
In these experiments, two concentrations of cells were tested (40,000 and 100,000 cells/well). It is noteworthy that the basal levels of reverse transcriptase activities were much higher in ACH-2 cells than in U1 cells.

CC(=O)O[C@@]12C[C@@H](C)[C@@]3(O)[C@@H](C=C(CO)C[C@]4(O)C(=O)C(C)=C[C@@H]34)[C@@H]1C2(C)C [prostratin, 12-deoxyphorbol 13-acetate]
Results (tolerability) (rats [1]; female rats, 0.8 mg/kg I.V. infusion, 3 hours): All animals died | Results (tolerability) (rats [1]; female rats, 1.2 mg/kg, one oral dose): 2 out of 3 animals died | Results (tolerability) (rats [1]; female rats, 1.8 mg/kg first oral dose followed by 1.0 mg/kg after 4 hours): 2 died after first dose, | Results (tolerability) (rats [1]; male rats, 1.8 mg/kg, two oral doses 4 hours apart): All animals are alive | Results (tolerability) (rats [1]; male rats, 2.4 mg/kg, one oral dose): All animals are alive | decrease in parent drug peak area [2]: 14% | oral bio-availability (rats [3]): 29% | maximum tolerated i.v. dose (rats [3]): 0.4 mg/kg | maximum tolerated i.v. dose (rats [3]; listed as Prostratin): Dosages in Male Rats (MTD via iv bolus dose: 0.4 mg/kg) | metabolism (time-dependent loss of parent compound) [4]: greatest | MTD ([5]; female rats): 2 mg/kg | MTD ([5]; male rats): 2.4 mg/kg | micronucleated PCEs ([6]; 0.5, 1, or 2 mg/kg for females, 0.6, 1.2, and 2.4 mg/kg for males): did not induce statistically significant increases | cytotoxicity to the bone marrow (PCE:NCE ratios) ([6]; any dose of the test article): not cytotoxic | clinical observations ([6]; female animals, 2 mg/kg, approximately one hour post-dose, mortality, irregular respiration, piloerection, and/or recumbency): signs of clinical toxicity | rat bone marrow micronucleus assay, overall ([6]; rat, in vivo): negative | exposure time needed to observe acceptable reverse transcriptase activity [7]: at least 48 h | lowest dose to get a reliable increase in reverse transcriptase activity [7]: 50 ng/mL | short incubation (pulsed stimulation) time leading to detectable reverse transcriptase activity ([7]; none after 1 h and 4 h): 6 h
